Patent US11331299B2, “Medicinal use of serrulatane diterpenes” (The University of Sydney, priority 2016, dated 2022)
Read-outs that look alike come from different tables or passages of the source.

Test system: 280 human cancer cell lines
Assay: OncoPanel cell proliferation assay (10-day)
Format: cell-based
Conditions: Homo sapiens; for EC50: read-out: Cell Count EC50; for GI50: read-out: Cell Count GI50; for IC50: read-out: Cell Count IC50
[1] = NCI-H292, NCI-H292, Lung - NSCLC
[2] = NCI-H441, NCIH441, Lung - NSCLC
[3] = NCI-H460, NCI-H460, Lung - NSCLC
[4] = NCI-H520, NCI-H520, Lung - NSCLC
[5] = NCI-H596, NCI-H596, Lung - NSCLC
[6] = NCI-H661, NCI-H661, Lung - NSCLC
[7] = NTERA-2-cl-D1, NTERA-2 cl.D1, Testis
[8] = OVCAR-3, OVCAR3, Female GU - Ovary
[9] = RPMI-7951, RPMI-7951, Skin (Melanoma)
[10] = SAOS-2, SaOS2, Soft Tissue - Osteosarcoma

**Q.** Which results are given for `CC(C)=CCC[C@H](CO)[C@@H]1CC[C@@H](C)c2c1cc(C)c(O)c2O` [Compound 1, 7,8,18-trihydroxyserrulat-14-ene]?
**A.** EC50 [1]: 3.2 µM; GI50 [1]: 3.18 µM; IC50 [1]: 3.2 µM; GI50 (NCI-H295R, Endocrine - Adrenal gland): 13.5 µM; EC50 [2]: 12.1 µM; GI50 [2]: 11.7 µM; IC50 [2]: 12.1 µM; EC50 (NCI-H446, NCIH446, Lung - SCLC): 10.3 µM; GI50 (NCI-H446, NCIH446, Lung - SCLC): 10 µM; IC50 (NCI-H446, NCIH446, Lung - SCLC): 10.3 µM; EC50 [3]: 2.34 µM; GI50 [3]: 2.33 µM; IC50 [3]: 2.34 µM; EC50 (NCI-H508, NCI-H508, Colon): 14.4 µM; GI50 (NCI-H508, NCI-H508, Colon): 14.3 µM; IC50 (NCI-H508, NCI-H508, Colon): 14.4 µM; EC50 [4]: 2.43 µM; GI50 [4]: 2.41 µM; IC50 [4]: 2.43 µM; EC50 [5]: 8.78 µM; GI50 [5]: 8.41 µM; IC50 [5]: 8.78 µM; EC50 [6]: 2.28 µM; GI50 [6]: 2.28 µM; IC50 [6]: 2.29 µM; EC50 (NCI-H747, NCI-H747, Colon): 3.09 µM; GI50 (NCI-H747, NCI-H747, Colon): 3.1 µM; IC50 (NCI-H747, NCI-H747, Colon): 3.11 µM; EC50 [7]: 2.25 µM; GI50 [7]: 2.2 µM; IC50 [7]: 2.25 µM; EC50 (OCUG-1, OCUG-1, Liver): 4.3 µM; GI50 (OCUG-1, OCUG-1, Liver): 4.29 µM; IC50 (OCUG-1, OCUG-1, Liver): 4.3 µM; EC50 (OE19, OE19, Head and Neck): 3.23 µM; GI50 (OE19, OE19, Head and Neck): 3.21 µM; IC50 (OE19, OE19, Head and Neck): 3.23 µM; EC50 (OE21, OE21, Head and Neck): 3.68 µM; GI50 (OE21, OE21, Head and Neck): 3.67 µM; IC50 (OE21, OE21, Head and Neck): 3.68 µM; EC50 [8]: 1.53 µM; GI50 [8]: 1.52 µM; IC50 [8]: 1.57 µM; EC50 (PA-1, Female GU - Ovary): 4.21 µM; GI50 (PA-1, Female GU - Ovary): 4.21 µM; IC50 (PA-1, Female GU - Ovary): 4.21 µM; EC50 (PANC-1, PANC-1, Pancreas): 2.87 µM; GI50 (PANC-1, PANC-1, Pancreas): 2.83 µM; IC50 (PANC-1, PANC-1, Pancreas): 2.87 µM; EC50 (PC-3, Prostate): 3.88 µM; GI50 (PC-3, Prostate): 3.86 µM; IC50 (PC-3, Prostate): 3.88 µM; EC50 (PFSK-1, PFSK-1, CNS - Glioma): 4.32 µM; GI50 (PFSK-1, PFSK-1, CNS - Glioma): 4.31 µM; IC50 (PFSK-1, PFSK-1, CNS - Glioma): 4.33 µM; EC50 (PSN1, PSN-1, Pancreas): 2.32 µM; GI50 (PSN1, PSN-1, Pancreas): 2.32 µM; IC50 (PSN1, PSN-1, Pancreas): 2.32 µM; EC50 (RD, Soft Tissue - Sarcoma): 0.81 µM; GI50 (RD, Soft Tissue - Sarcoma): 0.81 µM; IC50 (RD, Soft Tissue - Sarcoma): 0.81 µM; EC50 (RKO, Colon): 1.69 µM; GI50 (RKO, Colon): 1.69 µM; IC50 (RKO, Colon): 1.69 µM; EC50 (RKOE6, RKOE6, Colon): 1.72 µM; GI50 (RKOE6, RKOE6, Colon): 1.72 µM; IC50 (RKOE6, RKOE6, Colon): 1.72 µM; EC50 (RPMI-6666, RPMI 6666, Lymphoma): 3.53 µM; GI50 (RPMI-6666, RPMI 6666, Lymphoma): 3.44 µM; IC50 (RPMI-6666, RPMI 6666, Lymphoma): 3.53 µM; EC50 [9]: 0.7 µM; GI50 [9]: 0.7 µM; IC50 [9]: 0.7 µM; EC50 (RPMI-8226, RPMI 8226, Myeloma): 0.68 µM; GI50 (RPMI-8226, RPMI 8226, Myeloma): 0.67 µM; IC50 (RPMI-8226, RPMI 8226, Myeloma): 0.68 µM; EC50 (RS4-11, RS4, 11, Leukemia): 1.77 µM; GI50 (RS4-11, RS4, 11, Leukemia): 1.71 µM; IC50 (RS4-11, RS4, 11, Leukemia): 1.77 µM; EC50 (Raji, Lymphoma): 4.6 µM; GI50 (Raji, Lymphoma): 4.59 µM; IC50 (Raji, Lymphoma): 4.6 µM; EC50 (Ramos, Ramos (RA 1), Lymphoma): 2.96 µM; GI50 (Ramos, Ramos (RA 1), Lymphoma): 2.96 µM; IC50 (Ramos, Ramos (RA 1), Lymphoma): 2.96 µM; EC50 [10]: 1.98 µM; GI50 [10]: 2.04 µM; IC50 [10]: 2.1 µM; EC50 (SCC-4, SCC-4, Head and Neck): 4.66 µM; GI50 (SCC-4, SCC-4, Head and Neck): 4.63 µM; IC50 (SCC-4, SCC-4, Head and Neck): 4.72 µM; EC50 (SCC-9, SCC-9, Head and Neck): 3.44 µM; GI50 (SCC-9, SCC-9, Head and Neck): 3.44 µM; IC50 (SCC-9, SCC-9, Head and Neck): 3.45 µM; EC50 (SCC-25, SCC-25, Head and Neck): 3.94 µM; GI50 (SCC-25, SCC-25, Head and Neck): 3.95 µM; IC50 (SCC-25, SCC-25, Head and Neck): 3.96 µM; EC50 (SCaBER, Bladder): 3.12 µM; GI50 (SCaBER, Bladder): 3.1 µM; IC50 (SCaBER, Bladder): 3.12 µM; EC50 (SH-4, Skin (Melanoma)): 1.95 µM
